Source: patent publication US11154569B2, “Ruthenium μ-nitrido complexes and their use as calcium uptake inhibitors” (CORNELL UNIVERSITY, priority 2018, dated 2021)

Legend:
Water solubility = format: physicochemical
HeLa cells [1] = experiment: Whole cell uptake of ruthenium (GFAAS) in HeLa cells; format: cell-based; details: 50 μM, 24 hours
[2] = test system: neonatal rat ventricular myocytes (NRVMs); experiment: Hypoxia/reoxygenation injury in neonatal rat ventricular myocytes (ΔΨm and mCa2+ uptake); format: cell-based; details: 50 μM, 16 hours hypoxia, 8 hours reoxygenation
Procedure: Freshly isolated NRVMs were subjected to 16 hours of hypoxia (5% O2-5% CO2) followed by 8 hours of reoxygenation (20% O2-5% CO2). To study the protective effect of C-2, HIR was induced in NRVMs pretreated with or without C-2 (50 μM).
An equal number of NRVMs (6×10^6 cells) were washed in Ca^2+ free PBS, pH 7.4, resuspended and permeabilized with 40 μg/ml digitonin in 1.5 mL of intracellular medium (ICM) composed of 120 mM KCl, 10 mM NaCl, 1 mM KH2PO4, 20 mM Hepes-Tris, pH 7.2 and 2 μM thapsigargin to block the SERCA pump. All measurements were performed in the presence of 2 mM succinate. The simultaneous measurement of mitochondrial membrane potential (ΔΨm) and extra-mitochondrial Ca^2+([Ca^2+]) clearance were measured as above by using the JC-1 and Fura2-FF dyes. A series of extra-mitochondrial Ca^2+ bolus (10 μM) was added and mitochondrial uncoupler, CCCP (2 μM), were added at the indicated time points. All the experiments were performed at 37° C. with constant stirring.
Given the Ca^2+ uptake inhibiting properties and low toxicity of C-2, C-2 was studied for its possible ability to protect cardiomyocytes from the mCa^2+ overload that occurs during hypoxia/reoxygenation (I-H/R) injury and prevent mPTP opening and mitochondrial swelling. Freshly isolated neonatal rat ventricular myocytes (NRVMs) treated with C-2 (50 μM) were subjected to 16 hours of hypoxia (1% O2-5% CO2), followed by 8 hours of reoxygenation (21% O2-5% CO2). Untreated NRVMs served as controls. After H/R injury, NRVMs were permeabilized and loaded with the JC-1 and Fura-FF to simultaneously measure ΔΨm and mCa^2+ uptake.

MTT cytotoxicity assay = format: cell-based, human; details: human; HEK293 cells, 72 hours incubation; read-out: IC50 (cytotoxicity, MTT)
Procedure: HEK293 (human embryonic kidney cells were obtained from American Type Culture Collection (ATCC, Washington D.C.) and cultured as adherent monolayers in a humidified 5% CO2 atmosphere at 37° C. in Minimum Essential Media supplemented with 10% fetal bovine serum (FBS) and 100 U/mL penicillin/streptomycin. HeLa cells were cultured in Dulbecco's Modified Eagle's Medium (DMEM) supplemented with 10% FBS and 100 U/mL penicillin/streptomycin. Cells were checked for contamination monthly using the PlasmoTest™ mycoplasma detection kit. Ventricular cardiomyocytes were isolated from neonatal rats (NRVMs) as previously described (H. M. Piper et al., Piper H. M. (eds), Cell Culture Techniques in Heart and Vessel Research, Springer Verlag: Berlin, 1990). The isolated myocytes were cultured in Ham's F-10 supplemented with 5%/o fetal bovine serum (FBS) and penicillin/streptomycin (100 U/ml) at 37° C. in a 95% air/5% CO2 humidified atmosphere for four days
Cells were seeded at 4000 cells/well in 100 μL/well in a 96-well plate and incubated for 24 hours. The media was removed and replaced with 200 μL of growth media containing varying concentrations of the complex. After 72 hours of incubation, the media was replaced with MEM containing 1 mg/mL of (4,5-dimethylthiazol-2-yl)-2,5-diepheyltetrazolium bromide (MTT). After four hours incubation, the media was removed and the purple formazan crystals were solubilized using 100 μL of a 8/1 DMSO/glycine buffer (pH 10) mixture. The absorbance at 570 nm was measured using a plate reader.
With the new nitrido-bridged ruthenium compounds C-2 and C-3 prepared, MCU-inhibitory properties of these compounds were evaluated and their activities compared to C-1, the oxo-bridged Ru360 analogue of the conventional art (S. R. Nathan et al., Inorg. Chem. 2017, 56, 3123-3126 and S. R. Nathan et al., J. Vis. Exp. 2017, 56527). The cytotoxicity of the complexes in HEK293 cells was first measured using the colorimetric thiazolyl blue tetrazolium bromide (MTT) assay, as well known in the art. […]

[3] = test system: mitochondria isolated from NRVMs; experiment: Mitochondrial swelling assay (Ca2+-induced mPTP opening); format: cell-based, rat; details: 50 μM compound, Ca2+ 250 μM
Procedure: NRVMs were homogenized in ice-cold mitochondrial isolation buffer (10 mM sucrose, 200 mM mannitol, 5 mM HEPES, and 1 mM EGTA, pH 7.4) containing 1 mg/mL fatty acid-free bovine serum albumin. The homogenate was centrifuged for 10 minutes at 1000×g, and the supernatant was centrifuged again at 14,000×g for 10 minutes. The mitochondrial pellets were washed twice and centrifuged at 11,200×g. The isolated mitochondria (1 mg protein) were added to 0.2 mL of buffer mitochondrial swelling buffer (70 mM sucrose, 230 mM mannitol, 3 mM HEPES, 2 mM Trisphosphate, 5 mM succinate). Mitochondrial swelling was measured by decrease in absorbance at 540 nm after addition of Ca^2+ (250 μM). To study the protective effect of C-2 and Ru360, mitochondrial swelling assay was performed in mitochondria treated with or without the compounds (50 μM).
Additionally, the swelling of mitochondria isolated from NRVMs subjected to H/R injury in the absence or presence of C-2 or Ru360 was monitored. After baseline measurement of the absorbance at 600 nm, a single bolus of Ca^2+ (250 μM) was added to induce mPTP opening. As known, the decrease in mitochondrial absorbance indicates mitochondrial swelling and subsequent mPTP opening.

HeLa cells [4] = experiment: Mitochondrial accumulation of ruthenium in HeLa cells (mitochondrial isolation, GFAAS); details: 50 μM, 24 hours
Procedure: Approximately 1×10^6 HeLa cells were seeded in 75 cm^2 dishes and allowed to adhere overnight. The following day, the cell culture media was removed, and the cells were washed with 3 mL of PBS before treatment with media containing 50 μM of the complex. After 24 hours, the culture media was removed, and the cell monolayer was washed with 3 mL of PBS before the cells were harvested by trypsinization. The cell suspension was centrifuged, and the resulting pellet was resuspended in 3 ml, of PBS and centrifuged again to remove extracellular ruthenium. This washing step was repeated a total of three times. […] The ruthenium concentration in each sample was determined by GFAAS and was normalized to the protein content of the lysate, which was determined using the Bicinchoninic Acid Protein Assay Kit. […] Results were calculated as the mass ratio of total ruthenium to protein (pg/μg) in each sample±standard deviation of three independent trials. […]
To determine the abilities of the complexes to accumulate in the mitochondria, HeLa cells were treated with C-1, C-2 or C-3 (50 μM) in culture media for 24 hours, and the mitochondria were isolated following modified literature procedures (e.g., A. C. Komor et al., J. Am Chem. Soc. 2012, 134, 19223-19233). Both the mitochondrial and extramitochondrial fractions were analyzed for ruthenium content.

Row | Structure (SMILES) | solubility (Water solubility) | cellular uptake relative to C-1 and C-3 (HeLa cells [1]) | mCa2+ uptake after H/R injury [2] | ΔΨm after H/R injury [2] | CC50 at 72 h (MTT cytotoxicity assay) | mitochondrial swelling (decrease in absorbance after Ca2+ addition) [3] | concentration in the mitochondria compared to C-1 and C-3 (HeLa cells [4])
1 | N.N.N.N.N.N.N.N.[Cl-].[Cl-].[N-3].[Ru+4].[Ru+4] [C-2, [Ru2(μ-N)(NH3)8Cl2]Cl3] | 1000 µg/mL | twice as effectively as C-1 and C-3 | complete ablation of mCa^2+ uptake | no loss of ΔΨm | 195 ± 8 µM | no decrease in absorbance was observed | greater than three-fold higher concentrations
2 | N.N.N.N.N.N.N.N.O=C[O-].O=C[O-].[O-2].[Ru+3].[Ru+4] [Ru360, reference compound] | – | – | – | did not prevent H/R-mediated ΔΨm dissipation | – | no decrease in absorbance was observed | –
